# Laboratory results: PMC4109950, “Novel Small Molecule XPO1/CRM1 Inhibitors Induce Nuclear Accumulation of TP53, Phosphorylated MAPK and Apoptosis in Human Melanoma Cells” (PLoS ONE, 2014)
# How the values were obtained:
# A375 [1] = assay: Cellular growth assay (MTS), 72 h; type: cell-based, human; conditions: Homo sapiens, A-375, 72 h, A375, 72 hr treatment, read-out: Growth Inhibition IC50
# Description: (§1) Cells were seeded in 96-well plates (2×10^4) in triplicate and allowed to adhere overnight. Fresh media containing KPT-185, KPT-185-trans, KPT-276, or KPT-330 was added to each well at various concentrations (range = 40–10240 nM) and cells were incubated at 37°C/5% CO2 for 72 hours. Cells treated with DMSO (diluent) and untreated cells served as controls. At this time, the percentage of cell growth was evaluated using the MTS assay (CellTiter 96 AQueous Non-Radioactive Cell Proliferation Assay, Promega) and quantified by determining the optical density at 595 nm using a Bio-Rad iMark™ microplate reader. The 4-parameter logistic or Hill model was the assumed dose-response relationship for the in vitro inhibition and cell viability experiments. Nonlinear least squares regression was used to estimate the model parameters and generate 95% confidence intervals for the IC50 estimates. For in vivo experiments, tumor volumes were first log-transformed to meet test assumptions of normality and homoscedasticity. Changes in tumor volumes were analyzed using a two-sample t-test to evaluate the difference from first day of treatment to the last for A375 xenografts (day 17), and from day 1 to day 10 for CHL-1 xenografts as day 10 marks the first mouse sacrificed when 1500 mm^3 tumor volume was reached. ANOVA was used to compare the expression of XPO1 staining among samples from the melanoma tissue core array. The Wilcoxon rank-sum test was used to analyze data comparing growth inhibition and apoptosis of the five metastatic melanoma cell lines to the three melanocyte cell lines.
# CHL-1 [2] = assay: Cellular growth assay (MTS), 72 h; type: cell-based, human
# Description: as §1
# A375 [3] = assay: Apoptosis via Annexin V/PI staining, flow cytometry; type: cell-based; conditions: Homo sapiens, A-375, A375, 72 hr treatment
# Description: (§2) Phosphatidyl serine exposure was assessed in tumor cells and melanocytes by flow cytometry using APC-Annexin V and propidium iodide (PI; BD Pharmingen, San Diego, CA) as previously described. Each analysis was performed utilizing at least 10,000 events. We considered the Annexin V positive cells (early apoptosis) and Annexin V/PI double positive cells (late apoptosis) cells as the apoptotic cell population. The 4-parameter logistic or Hill model was the assumed dose-response relationship for the in vitro inhibition and cell viability experiments. Nonlinear least squares regression was used to estimate the model parameters and generate 95% confidence intervals for the IC50 estimates. For in vivo experiments, tumor volumes were first log-transformed to meet test assumptions of normality and homoscedasticity. Changes in tumor volumes were analyzed using a two-sample t-test to evaluate the difference from first day of treatment to the last for A375 xenografts (day 17), and from day 1 to day 10 for CHL-1 xenografts as day 10 marks the first mouse sacrificed when 1500 mm^3 tumor volume was reached. ANOVA was used to compare the expression of XPO1 staining among samples from the melanoma tissue core array. The Wilcoxon rank-sum test was used to analyze data comparing growth inhibition and apoptosis of the five metastatic melanoma cell lines to the three melanocyte cell lines.
# CHL-1 [4] = assay: as above; type: cell-based; conditions: Homo sapiens, CHL-1, 72 hr treatment
# Description: as §2
# [5] = tested on: human A375 melanoma xenografts; assay: Subcutaneous melanoma xenograft tumor growth; type: in vivo, NOD/SCID mice; conditions: oral gavage three times weekly, KPT-276 75 mg/kg or KPT-330 15 mg/kg, p<0.0001 for both
# Description: (§3) All animal studies were conducted under a protocol (2009A0178-R1) approved by The Ohio State University Institutional Animal Care and Use Committee (IACUC). A subcutaneous (s.c.) tumor model of melanoma was employed to determine whether treatment with the orally bioavailable SINE compounds, KPT-276 (preclinical tool compound) or KPT-330 (currently in Phase 1 studies in humans with advanced cancers), would be effective in decreasing tumor growth in vivo. Female NOD/SCID mice (n = 6 mice/group; 6-8 weeks of age; Jackson Laboratory, Bar Harbor, ME) were injected subcutaneously (s.c.) in the right flank with 2×10^6 human A375 or CHL-1 melanoma cells (Day 0). Once tumors were palpable, mice were randomized to one of […] treatment groups: [a] diluent, [b] KPT-276 (75 mg/kg), or [c] KPT-330 (15 mg/kg). All treatments were administered via oral gavage in a volume of 200 µL three times weekly (Monday, Wednesday, Friday). Bi-dimensional tumor measurements were obtained three times weekly using microcalipers. Mice were euthanized and tumors were collected from all animals once diluent-treated tumors reached a volume of 1500 mm^3. For histology studies, a subset of animals (n = 2–3/group) were treated with diluents, KPT-276, or KPT-330 for one week, after which tumors were collected to avoid necrosis. The weights of all animals receiving diluent, KPT-276 or KPT-330 were monitored for dosing and to assess toxicity throughout the study.
# as §2, with “The” for “Phosphatidyl serine exposure was assessed in tumor cells and melanocytes by flow cytometry using APC-Annexin V and propidium iodide (PI; BD Pharmingen, San Diego, CA) as previously described. Each analysis was performed utilizing at least 10,000 events. We considered the Annexin V positive cells (early apoptosis) and Annexin V/PI double positive cells (late apoptosis) cells as the apoptotic cell population. The”
# [6] = tested on: human CHL-1 melanoma xenografts; assay: Subcutaneous melanoma xenograft tumor growth; type: in vivo, NOD/SCID mice; conditions: CHL-1 xenograft, oral gavage three times weekly, KPT-276 75 mg/kg (p = 0.0087) or KPT-330 15 mg/kg (p = 0.0002)
# Description: as §3
# as §2, with “The” for “Phosphatidyl serine exposure was assessed in tumor cells and melanocytes by flow cytometry using APC-Annexin V and propidium iodide (PI; BD Pharmingen, San Diego, CA) as previously described. Each analysis was performed utilizing at least 10,000 events. We considered the Annexin V positive cells (early apoptosis) and Annexin V/PI double positive cells (late apoptosis) cells as the apoptotic cell population. The”
# [7] = Body weight of tumor-bearing mice during oral treatment; type: in vivo, NOD/SCID mice; conditions: oral treatment three times weekly, KPT-276 75 mg/kg or KPT-330 15 mg/kg, n = 6
# Description: as §3, with “For histology studies, a subset of animals (n = 2–3/group) were treated with diluents, KPT-276, or KPT-330 for one week, after which tumors were collected to avoid necrosis.” left out
# [8] = parameters: method as in personal communication, Karyopharm Therapeutics, Inc.; conditions: CD1 mice, oral, 10 mg/kg; ref personal communication, Karyopharm Therapeutics, Inc.; cited from earlier work
# [9] = tested on: A375 and CHL-1 cell lines; assay: Immunoblot of TP53, CDKN1A after etoposide; type: cell-based, human; conditions: 20 µM etoposide, 24 hours
# Description: Human melanoma cell lines were seeded in 6-well plates (2×10^5) and allowed to adhere overnight. After treatment for various time points, the cells were harvested then fractionated using NE-PER Nuclear and Cytoplasmic Extraction Reagents from Thermo Scientific following the manufacturer's protocol. Nuclear and cytoplasmic fractions were validated via immunoblot analysis using Lamin B and GAPDH antibodies.
# Immunoblots were prepared as previously described and probed with antibodies specific for TP53, CDKN1A (p21), XPO1, HDM2 (MDM2), Lamin B (Santa Cruz Biotechnology, Santa Cruz, CA), pMAPK, PARP (Cell Signaling Technology), GAPDH or β-actin (Sigma). Following incubation with the appropriate horseradish peroxidase-conjugated secondary antibody, immune complexes were detected using the ECL Plus detection kit (Amersham Biosciences, Ayesbury, UK).
# Supplementary file pone.0102983.s001.tif: Figure S1 Localization of TP53, CDKN1A, and pMAPK in melanoma cell lines with etoposide. A375 and CHL-1 cell lines were treated with 20 µM of etoposide and harvested after 24 hours of treatment. Lysates were evaluated via immunoblot analysis. Lamin B and GAPDH serve as loading controls for nuclear and cytoplasmic compartments respectively. The data shown are representative of 2 to 3 independent biological experiments. (TIF) Click here for additional data file.
# A375 xenografts = assay: Immunohistochemical staining of xenografts; type: in vivo, NOD/SCID mice; conditions: treated one week
# Description: as §3
# (§4) For analysis of XPO1 expression in human samples, an unstained (5 µm) slide of a commercially available tissue microarray (1 mm cores) containing 56 cases of primary melanoma, 20 cases of metastatic melanoma, and 24 cases diagnosed as nevus (US Biomax, Inc., Catalog #ME1004a) was subjected to immunohistochemical analysis using an antibody targeting XPO1 (Santa Cruz H-300, sc-5595, lot # D0110) according to manufacturer's recommendations (1∶50). For mouse studies, tumor xenografts were fixed in formalin, embedded in paraffin, a sectioned at 4 µm with two sections per slide. […] All samples were analyzed in a blinded fashion by an experienced pathologist (Dr. Krista La Perle). Automatic quantification of immunoreactivity in viable portions of xenograft tissue samples and tissue cores segmented with the TMA Lab (Aperio Technologies, Vista, CA) was performed on whole slide images scanned at 40× magnification (ScanScope XT, Aperio Technologies) using the Positive Pixel Count Algorithm in the ImageScope software, as well as the Color Deconvolution and Cytoplasmic algorithms available in the Image Analysis Toolbox (Aperio Technologies).
# CHL-1 xenografts = assay: Immunohistochemical staining of xenografts; type: in vivo, NOD/SCID mice; conditions: treated one week
# Description: as §3, §4
SMILES,IC50 (A375 [1]),"IC50 (CHL-1 [2]; Homo sapiens, CHL-1, 72 hr treatment, read-out: Growth Inhibition IC50)",IC50 (A375 [3]),IC50 (CHL-1 [4]),Tumor growth vs diluent [5],Tumor growth vs diluent [6],Body weights of mice during treatment [7],Bioavailability [8],Level at Tmax [8],Tmax [8],TP53 upregulation and downstream activation of CDKN1A [9],"IC57 value (cytostatic effect) (CHL-1 [2]; CHL-1, 72 hours)",Ki67 staining (A375 xenografts),Levels of nuclear TP53 and pMAPK (IHC) (A375 xenografts; n = 3 vs 2),Ki67 staining (CHL-1 xenografts),TP53 expression (IHC) (CHL-1 xenografts; high basal expression)
O=C(/C=C\n1cnc(-c2cc(C(F)(F)F)cc(C(F)(F)F)c2)n1)NNc1cnccn1 [KPT-330],120 nM,7530 nM,112 nM,7690 nM,significantly inhibited,significantly inhibited,remained constant,~60%,roughly 2.5 micromolar,30 min,,,,,,
"COc1cc([C@@H]2c3cc4c(cc3[C@@H](O[C@@H]3O[C@@H]5CO[C@@H](C)O[C@H]5[C@H](O)[C@H]3O)[C@H]3COC(=O)[C@H]23)OCO4)cc(OC)c1O [etoposide, Etoposide]",,,,,,,,,,,induced TP53 upregulation,,,,,
O=C(/C=C\n1cnc(-c2cc(C(F)(F)F)cc(C(F)(F)F)c2)n1)N1CC(F)(F)C1 [KPT-276],321 nM,,233 nM,6130 nM,significantly inhibited growth,significantly inhibited growth,remained constant,> 90%,roughly 2.5 micromolar,60 min,,3.8794 µM,No significant changes,trend towards increased levels,No significant changes,did not change
